Measurements: patent US20100113392A1, “METHODS OF USING SAHA AND BORTEZOMIB FOR TREATING MULTIPLE MYELOMA” (priority 2006, published 2010)

What was measured:
[1] = system: relapsed and refractory multiple myeloma; experiment: Phase I clinical trial of oral Vorinostat plus Bortezomib: response; format: in vivo, human; conditions: dexamethasone 20 mg p.o. days 4-8 added to Vorinostat and Bortezomib for nonresponders
[2] = Pharmacokinetics of Vorinostat in the Phase I trial
[3] = Phase I clinical trial of oral Vorinostat plus Bortezomib: MTD, safety and tolerability; format: in vivo, human; conditions: Vorinostat 500 mg daily with Bortezomib […]^2, cycle 1, 2 patients
Protocol: This was a multicenter, open label, escalating dose, Phase I study of Vorinostat in combination with intravenous Bortezomib injection in patients eligible for Bortezomib therapy. […] Patients on Dose Levels 1-5 were administered Bortezomib as an intravenous (IV) bolus on Days 1, 4, 8 and 11.
At the beginning of the study, five 3-patient cohorts were evaluated at various dose levels as outlined in the Table 1 and Table 2 below.
In the absence of treatment delays due to adverse events, treatment continued for 8-cycles or until one of the following criteria applied: • a) disease progression • b) intercurrent illness that prevents further administration of treatment • c) unacceptable adverse events • d) patient decides to withdraw from the study • e) general or specific changes in the patient's condition render the patient unacceptable for further treatment in the judgment of the investigator. • f) if the patient achieves a complete remission, they continue on the study for a total of 8 cycles.
Further studies enrolled up to 40 adult patients with multiple myeloma, relapsed or refractory disease. One treatment cycle was 3 weeks or 21 days. […] Although the current FDA approved Bortezomib dose for relapsed myeloma patients to be […], if toxicity occurred, the subsequent dose of Bortezomib was going to be decreased to 0.7 mg/m^2. […] Other Bortezomib dose to be tested was 1.3 mg/m^2.

Compound | effect of added dexamethasone on response [1] | effect of administration after Bortezomib on pharmacokinetics ([2]; Vorinostat given after Bortezomib) | dose dependence of pharmacokinetics ([2]; single oral dose, 100-500 mg) | toxicities defining the MTD in cycle 1 [3]
9-fluoro-1′-beta,17,21-trihydroxy-16-alpha-methylpregna-1,4-diene-3,20-dione [dexamethasone] | no upgrade in response |  |  | 
O=C(CCCCCCC(=O)Nc1ccccc1)NO [Vorinostat, N-Hydroxy-N′-phenyl octanediamide] |  | did not affect pharmacokinetics | linear | grade 4 prolonged QT interval and grade 4 fatigue
